Data taken from PubChem BioAssay (NCI).
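These data come from cells grown in 96-well plates and exposed to compound for 48 hours at five concentrations. The concentration for 50% growth inhibition is given as GI50. TGI: total growth inhibition.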

Legend:
Experiment in all cases: NCI anticancer screen, dose series, 48 h
[1] = tested on: OVCAR-4 ovarian
[2] = tested on: OVCAR-5 ovarian
[3] = tested on: 786-0 renal
[4] = tested on: KM12 colon
[5] = tested on: EKVX NSCLC
[6] = tested on: OVCAR-8 ovarian
[7] = tested on: SF-295 CNS
[8] = tested on: RXF 393 renal
[9] = tested on: RPMI-8226 leukemia
[10] = tested on: UACC-62 melanoma

Compound	TGI [1]	TGI [2]	TGI [3]	TGI [4]	TGI [5]	TGI [6]	TGI [7]	TGI [8]	GI50 [1]	GI50 [2]	GI50 [3]	GI50 [9]	TGI [9]	GI50 [4]	GI50 [10]	TGI [10]	GI50 [5]	GI50 [6]	GI50 [7]	GI50 [8]
COC(=O)c1c[nH]cc1CCc1c[nH]cc1C(=O)OC	> 100 µM	> 100 µM	> 100 µM	> 100 µM	> 100 µM	> 100 µM	> 100 µM	> 100 µM												
CN(C)CCNC(=O)c1ccc(Nc2nc3ccccc3c3occc23)cc1	> 100 µM	24.6 µM	6.8 µM	4.15 µM	28.7 µM	7.96 µM	4.18 µM		26.7 µM	11.8 µM	2.57 µM	2.9 µM	9.05 µM	1.89 µM	1.35 µM	2.71 µM	11.7 µM	2.08 µM	1.88 µM	
COc1ccc(OCC(=O)O)c2c1CCC(C(C)C)C2=O (stereo unspecified)	> 100 µM	> 100 µM	> 100 µM	> 100 µM	> 100 µM	> 100 µM	> 100 µM						> 100 µM			> 100 µM				
CCCCCCCCCCCCN1C(C)=CS/C1=C\C=C\c1scc(C)[n+]1CCCCCCCCCCCC	13.2 µM	9.43 µM	7.37 µM				5.35 µM	5.29 µM	1.43 µM	2.3 µM	2.17 µM				1.1 µM	3.41 µM			1.53 µM	1.42 µM
CC(=O)Nc1ccc(/C=C(\NC(=O)c2ccccc2)c2nc3ccc4c(c3[nH]2)C(=O)c2ccccc2C4=O)cc1	> 100 µM	> 100 µM	> 100 µM		> 100 µM	> 100 µM	> 100 µM	49.1 µM					> 100 µM			> 100 µM				
CC(=O)N(C)OC(=O)CC(=O)c1ccccc1	> 100 µM	> 100 µM	> 100 µM	> 100 µM		> 100 µM	> 100 µM	> 100 µM					> 100 µM			> 100 µM				
CN(C)/[N+]([O-])=N/Oc1cc(Nc2cccc(C(=O)O)c2)c([N+](=O)[O-])cc1[N+](=O)[O-]		> 100 µM	> 100 µM	> 100 µM	> 100 µM	> 100 µM	> 100 µM	> 100 µM		> 100 µM	> 100 µM	> 100 µM	> 100 µM	86.7 µM	50.1 µM	> 100 µM	> 100 µM	> 100 µM	> 100 µM	> 100 µM
O=S(=O)([O-])[O-].[OH3+].[OH3+].[OH3+].[Ru+2].c1ccccc1	> 100 µM	> 100 µM	> 100 µM	> 100 µM	> 100 µM	> 100 µM	> 100 µM		> 100 µM	> 100 µM	> 100 µM	> 100 µM	> 100 µM	> 100 µM			> 100 µM	> 100 µM	> 100 µM	
Cn1c(C(N)=O)cc2c1-c1nc(Nc3ccccc3)ncc1CCC2		25.1 µM	34.5 µM	18.3 µM		69.3 µM	> 100 µM	5.34 µM		2.54 µM	4.55 µM			1.48 µM	3.92 µM	17.7 µM		7.06 µM	4.65 µM	1.44 µM
Cn1ncc(=S)[nH]c1=S	> 100 µM	> 100 µM	> 100 µM		> 100 µM	> 100 µM	> 100 µM	> 100 µM					> 100 µM			> 100 µM				
O=C1NC(=O)C(C(=O)C(=O)Nc2ccc(Br)cc2)C(=O)N1	> 100 µM		> 100 µM		> 100 µM	> 100 µM	> 100 µM	> 100 µM					> 100 µM			> 100 µM				
CC(C(=O)N1C(=O)N(C(=O)C(C)C(O)c2ccccc2)C(c2ccccc2)C1c1ccccc1)C(O)c1ccccc1 (stereo unspecified)	> 100 µM		> 100 µM	5.69 µM		> 100 µM	10.8 µM	28.1 µM					13.6 µM			40.5 µM				
O=C(Nc1ccc(-c2nc3cc4ccccc4cc3[nH]2)cc1)c1cccc(Br)c1	7.97 µM	68.3 µM	18 µM	32.4 µM		18.9 µM	48.1 µM	8.28 µM	2.88 µM	22.6 µM	5.48 µM	10.6 µM	56.8 µM	7.24 µM	15.8 µM	30.5 µM		3.43 µM	20.7 µM	1.9 µM
Oc1cccc2c1NC1=C(CCC/C1=C\c1ccccc1)C2			> 100 µM	> 100 µM	> 100 µM	> 100 µM	> 100 µM						> 100 µM							
O=C(/C=C/c1ccco1)c1ccc(Nc2nc(Nc3ccc(F)cc3)nc(Nc3ccc(Cl)cc3)n2)cc1	> 88.3 µM	> 100 µM	> 49.4 µM	43.4 µM	> 60.2 µM	57.3 µM		45.9 µM	27.1 µM	> 100 µM	> 34.3 µM	2.75 µM	> 82.4 µM	16.7 µM	> 37.4 µM	> 59.5 µM	> 32.1 µM	18.3 µM		7.09 µM
CCCCCCCCCCCCCS(=O)(=O)O	> 100 µM	> 100 µM	> 100 µM	> 100 µM	> 100 µM	> 100 µM	> 100 µM	> 100 µM								> 100 µM				
CC1=C(C)C(=O)c2c(c(C(=O)c3ccccc3)c3nc4ccccc4n3c2C)C1=O	> 100 µM	> 100 µM	95.2 µM	> 100 µM	> 100 µM	> 100 µM	> 100 µM		> 100 µM	> 100 µM	26.8 µM	> 100 µM	> 100 µM	> 100 µM	35 µM	> 100 µM	68.2 µM	39.7 µM	38.8 µM	
CCCc1c2c([nH]c(=O)c1C)C(=O)c1[nH]c(=O)c(C)c(CCC)c1C2=O	54.6 µM	> 100 µM	> 100 µM			17.8 µM	> 100 µM	69.2 µM												
Cc1ccc(NC(=O)c2[nH]c(=S)nc(N)c2-c2ccccc2C)cc1C		> 100 µM	> 100 µM	> 100 µM	> 100 µM	> 100 µM		> 100 µM					> 100 µM			> 100 µM				
